ChEMBL document CHEMBL3046755, “Synthesis and Herbicidal Activity of N-Alkyl-N-(substituted benzyl)-4-halo-2-alkenamides” (1999)
Activity calls are given as the source filed them. The rule behind the calls is not given here.

Key:
Echinochloa oryzicola [1] = test: Herbicidal activity against Echinochloa oryzicola seedlings assessed as induction of seedlings damage measured after 3 weeks post compound application through paddy water; assay type: functional
Echinochloa oryzicola [2] = test: Light dependent herbicidal activity against Echinochloa oryzicola seedlings assessed as inhibition of seedlings growth at 10 ppm measured after 6 days post compound application under greenhouse conditions at 25 +/- 2 degC with day light; assay type: functional, organism-based
Echinochloa oryzicola [3] = test: Light dependent herbicidal activity against Echinochloa oryzicola seedlings assessed as inhibition of seedlings growth at 10 ppm measured after 6 days post compound application under greenhouse conditions at 25 +/- 2 degC under dark conditions; assay type: functional, organism-based
Echinochloa oryzicola [4] = test: Potency index, ratio of ED90 for chlomethoxyfen to ED90 for test compound for herbicidal activity against Echinochloa oryzicola seedling; assay type: functional

Structure (SMILES) | ED90 (Echinochloa oryzicola [1]) [gAi/ha] | growth inhibition (GI) (Echinochloa oryzicola [2]) | growth inhibition (GI) (Echinochloa oryzicola [3]) | Ratio (Echinochloa oryzicola [4])
CC(C)CN(Cc1ccc(Cl)cc1)C(=O)/C=C/CBr | >4000 |  |  | 
CC(Cl)/C=C/C(=O)N(Cc1ccccc1)CC(C)C (stereo not given) | 125 | Active |  | 
CCCOCCN(C(=O)CCl)c1c(CC)cccc1CC |  |  | Active | 
CCOc1cc(Oc2ccc(C(F)(F)F)cc2Cl)ccc1[N+](=O)[O-] |  | Active |  | 
CC(Cl)/C=C/C(=O)N(Cc1ccc(C#N)cc1)CC(C)C (mixture of isomers) | 16 | Active |  | 
CC(Cl)/C=C/C(=O)N(Cc1ccc(C#N)cc1Cl)CC(C)C (mixture of isomers) | <16 | Active |  | 
CC(Br)/C=C/C(=O)N(Cc1ccc(Cl)cc1)CC(C)C (racemic) | 125 | Active |  | 
CC(I)/C=C/C(=O)N(Cc1ccc(Cl)cc1)CC(C)C (racemic) | 250 | Active |  | 
CCC(Br)/C=C/C(=O)N(Cc1ccc(Cl)cc1)CC(C)C (racemic) | 125 |  |  | 
CCCC(Br)/C=C/C(=O)N(Cc1ccc(Cl)cc1)CC(C)C (racemic) | 250 |  |  | 
CC(C)CN(Cc1ccc(Cl)cc1)C(=O)/C=C/C(Br)C(C)C (racemic) | 250 |  |  | 
CCCCC(Br)/C=C/C(=O)N(Cc1ccc(Cl)cc1)CC(C)C (racemic) | 2500 |  |  | 
CCCCCCC(Br)/C=C/C(=O)N(Cc1ccc(Cl)cc1)CC(C)C (racemic) | 5000 |  |  | 
CCCCCCCCC(Br)/C=C/C(=O)N(Cc1ccc(Cl)cc1)CC(C)C (racemic) | >5000 |  |  | 
CCC(Cl)/C=C/C(=O)N(Cc1ccc(Cl)cc1)CC(C)C (racemic) | 16 |  |  | 
CCCC(Cl)/C=C/C(=O)N(Cc1ccc(Cl)cc1)CC(C)C (racemic) | 500 |  |  | 
CC(Cl)/C=C/C(=O)N(Cc1ccccc1C#N)CC(C)C (racemic) | 250 | Active |  | 
CC(Cl)/C=C/C(=O)N(Cc1cccc(C#N)c1)CC(C)C (racemic) | 500 | Active |  | 
CC(Cl)/C=C/C(=O)N(Cc1ccc(C(F)(F)F)cc1)CC(C)C (racemic) | 31 | Active |  | 
Cc1ccc(CN(CC(C)C)C(=O)/C=C/C(C)Cl)cc1 (racemic) | 125 | Active |  | 

Structure (SMILES) | ED90 (Echinochloa oryzicola [1]) [gAi/ha] | growth inhibition (GI) (Echinochloa oryzicola [2]) | growth inhibition (GI) (Echinochloa oryzicola [3]) | Ratio (Echinochloa oryzicola [4])
CC(Cl)/C=C/C(=O)N(Cc1ccc([N+](=O)[O-])cc1)CC(C)C (racemic) | 250 | Active |  | 
CC(Cl)/C=C/C(=O)N(Cc1ccc(S(C)(=O)=O)cc1)CC(C)C (racemic) | >1000 | Active |  | 
CC(Cl)/C=C/C(=O)N(Cc1ccc(C=O)cc1)CC(C)C (racemic) | 1000 | Active |  | 
CC(Cl)/C=C/C(=O)N(Cc1ccc(C(=O)O)cc1)CC(C)C (racemic) | >5000 | Active |  | 
CCOC(=O)c1ccc(CN(CC(C)C)C(=O)/C=C/C(C)Cl)cc1 (racemic) | 1000 | Active |  | 
CSc1ccc(CN(CC(C)C)C(=O)/C=C/C(C)Cl)cc1 (racemic) | 250 | Active |  | 
CC(Cl)/C=C/C(=O)N(Cc1ccc(C(N)=O)cc1)CC(C)C (racemic) | 500 | Active |  | 
CC(=O)Nc1ccc(CN(CC(C)C)C(=O)/C=C/C(C)Cl)cc1 (racemic) | >5000 | Active |  | 
CC(Cl)/C=C/C(=O)N(Cc1ccc(Cl)cc1Cl)CC(C)C (racemic) | 125 | Active |  | 
COc1cc(Cl)ccc1CN(CC(C)C)C(=O)/C=C/C(C)Cl (racemic) | 500 | Active |  | 
CC(Cl)/C=C/C(=O)N(Cc1ccc(Cl)cc1OS(C)(=O)=O)CC(C)C (racemic) | 500 | Active |  | 
CC(Cl)/C=C/C(=O)N(Cc1ccc(Cl)c([N+](=O)[O-])c1)CC(C)C (racemic) | 31 | Active |  | 
COc1cc(CN(CC(C)C)C(=O)/C=C/C(C)Cl)ccc1Cl (racemic) | 16 | Active |  | 
CCCOc1cc(CN(CC(C)C)C(=O)/C=C/C(C)Cl)ccc1Cl (racemic) | 31 | Active |  | 
CC(Cl)/C=C/C(=O)N(Cc1ccc(Cl)c(OS(C)(=O)=O)c1)CC(C)C (racemic) | 31 | Active |  | 
CCOC(=O)c1cc(CN(CC(C)C)C(=O)/C=C/C(C)Cl)ccc1Cl (racemic) | <16 | Active |  | 
COc1cc(CN(CC(C)C)C(=O)/C=C/C(C)Cl)ccc1C#N (racemic) | 16 | Active |  | 
CC(Cl)/C=C/C(=O)N(Cc1cc(Cl)c(C#N)cc1Br)CC(C)C (racemic) | <16 | Active |  | 
COc1ccc(Cl)cc1CN(CC(C)C)C(=O)/C=C/C(C)Cl (racemic) | >1000 | Active |  | 
CC(Cl)/C=C/C(=O)N(Cc1cc(Cl)ccc1OS(C)(=O)=O)CC(C)C (racemic) | >1000 | Active |  | 

Structure (SMILES) | ED90 (Echinochloa oryzicola [1]) [gAi/ha] | growth inhibition (GI) (Echinochloa oryzicola [2]) | growth inhibition (GI) (Echinochloa oryzicola [3]) | Ratio (Echinochloa oryzicola [4])
COc1ccc(Cl)c(CN(CC(C)C)C(=O)/C=C/C(C)Cl)c1 (racemic) | 31 | Active |  | 
CCCOc1ccc(Cl)c(CN(CC(C)C)C(=O)/C=C/C(C)Cl)c1 (racemic) | 62 | Active |  | 
CC(Cl)/C=C/C(=O)N(Cc1cc(OS(C)(=O)=O)ccc1Cl)CC(C)C (racemic) | 31 | Active |  | 
CC(Cl)/C=C/C(=O)N(C)Cc1ccc(Cl)cc1 (racemic) | 2000 | Active |  | 
CCN(Cc1ccc(Cl)cc1)C(=O)/C=C/C(C)Cl (racemic) | 250 | Active |  | 
CCCN(Cc1ccc(Cl)cc1)C(=O)/C=C/C(C)Cl (racemic) | 125 | Active |  | 
CC(Cl)/C=C/C(=O)N(Cc1ccc(Cl)cc1)C(C)C (racemic) | 250 | Active |  | 
CCCCN(Cc1ccc(Cl)cc1)C(=O)/C=C/C(C)Cl (racemic) | 31 | Active |  | 
CCC(C)N(Cc1ccc(Cl)cc1)C(=O)/C=C/C(C)Cl (racemic) | 375 | Active |  | 
CC(Cl)/C=C/C(=O)N(Cc1ccc(Cl)cc1)C(C)(C)C (racemic) | >5000 | Active |  | 
C=CCN(Cc1ccc(Cl)cc1)C(=O)/C=C/C(C)Cl (racemic) | 375 | Active |  | 
CC(Cl)/C=C/C(=O)N(CCC(C)C)Cc1ccc(Cl)cc1 (racemic) | <16 | Active |  | 
CC(Cl)/C=C/C(=O)N(Cc1ccc(Cl)cc1)C1CCCCC1 (racemic) | 31 | Active |  | 
CC(Cl)/C=C/C(=O)N(Cc1ccc(Cl)cc1)C1CCCCCC1 (racemic) | 62 | Active |  | 
CCCCCCCCN(Cc1ccc(Cl)cc1)C(=O)/C=C/C(C)Cl (racemic) | >5000 | Active |  | 
CC(O)/C=C/C(=O)N(Cc1ccc(Cl)cc1)CC(C)C (racemic) | >5000 | Active |  | 
CC(Cl)/C=C/C(=O)N(Cc1ccc(Cl)cc1)CC(C)C (racemic) | 16 | Active |  | 10
COc1cc(Oc2ccc(Cl)cc2Cl)ccc1[N+](=O)[O-] [CHLOMETHOXYFEN] | 250 |  |  | 
